Read-outs that look alike come from different tables or passages of the source.
Legend:
Test in all cases: Kinase binding assay (kinase-tagged T7 phage / qPCR, Ambit Biosciences)
PI3Kβ = target: T1, PI3Kβ (Homo sapiens, UniProt P42338); details: read-out: inhibitory activity (IC50) against PI3Kβ
T1 construct: purchased Ambit Biosciences; host or cells: E. coli BL21-derived host (T7 phage) or HEK-293
Description: (§1) Assays were performed as described in Fabian et al. (2005) Nature Biotechnology, vol. 23, p. 329 and in Karaman et al. (2008) Nature Biotechnology, vol. 26, p. 127.
(§2) Kinase assays. For most assays, kinase-tagged T7 phage strains were grown in parallel in 24-well blocks in an E. coli host derived from the BL21 strain. E. coli were grown to log-phase and infected with T7 phage from a frozen stock (multiplicity of infection ˜0.1) and incubated with shaking at 32° C. until lysis (˜90 minutes). The lysates were centrifuged (6,000×g) and filtered ([…]) to remove cell debris. The remaining kinases were produced in HEK-293 cells and subsequently tagged with DNA for qPCR detection. Streptavidin-coated magnetic beads were treated with biotinylated small molecule ligands for 30 minutes at room temperature to generate affinity resins for kinase assays. The liganded beads were blocked with excess biotin and washed with blocking buffer (SeaBlock (Pierce), 1% BSA, 0.05% Tween 20, 1 mM DTT) to remove unbound ligand and to reduce non-specific phage binding. Binding reactions were assembled by combining kinases, liganded affinity beads, and test compounds in 1× binding buffer (20% SeaBlock, 0.17×PBS, 0.05% Tween 20, 6 mM DTT). Test compounds were prepared as 40× stocks in 100% DMSO and directly diluted into the assay. All reactions were performed in polypropylene 384-well plates in a final volume of 0.04 ml. The assay plates were incubated at room temperature with shaking for 1 hour and the affinity beads were washed with wash buffer (1×PBS, 0.05% Tween 20). The beads were then re-suspended in elution buffer (1×PBS, 0.05% Tween 20, 0.5 mM non-biotinylated affinity ligand) and incubated at room temperature with shaking for 30 minutes. The kinase concentration in the eluates was measured by qPCR.
(§3) Compounds were tested using the above assay at Ambit Biosciences (San Diego, Calif., USA).

PI3Kδ = target: T2, PI3Kδ (Homo sapiens, UniProt O00329)
T2 construct: purchased Ambit Biosciences; host or cells: E. coli BL21-derived host (T7 phage) or HEK-293
T2 sequence (O00329 1-1044): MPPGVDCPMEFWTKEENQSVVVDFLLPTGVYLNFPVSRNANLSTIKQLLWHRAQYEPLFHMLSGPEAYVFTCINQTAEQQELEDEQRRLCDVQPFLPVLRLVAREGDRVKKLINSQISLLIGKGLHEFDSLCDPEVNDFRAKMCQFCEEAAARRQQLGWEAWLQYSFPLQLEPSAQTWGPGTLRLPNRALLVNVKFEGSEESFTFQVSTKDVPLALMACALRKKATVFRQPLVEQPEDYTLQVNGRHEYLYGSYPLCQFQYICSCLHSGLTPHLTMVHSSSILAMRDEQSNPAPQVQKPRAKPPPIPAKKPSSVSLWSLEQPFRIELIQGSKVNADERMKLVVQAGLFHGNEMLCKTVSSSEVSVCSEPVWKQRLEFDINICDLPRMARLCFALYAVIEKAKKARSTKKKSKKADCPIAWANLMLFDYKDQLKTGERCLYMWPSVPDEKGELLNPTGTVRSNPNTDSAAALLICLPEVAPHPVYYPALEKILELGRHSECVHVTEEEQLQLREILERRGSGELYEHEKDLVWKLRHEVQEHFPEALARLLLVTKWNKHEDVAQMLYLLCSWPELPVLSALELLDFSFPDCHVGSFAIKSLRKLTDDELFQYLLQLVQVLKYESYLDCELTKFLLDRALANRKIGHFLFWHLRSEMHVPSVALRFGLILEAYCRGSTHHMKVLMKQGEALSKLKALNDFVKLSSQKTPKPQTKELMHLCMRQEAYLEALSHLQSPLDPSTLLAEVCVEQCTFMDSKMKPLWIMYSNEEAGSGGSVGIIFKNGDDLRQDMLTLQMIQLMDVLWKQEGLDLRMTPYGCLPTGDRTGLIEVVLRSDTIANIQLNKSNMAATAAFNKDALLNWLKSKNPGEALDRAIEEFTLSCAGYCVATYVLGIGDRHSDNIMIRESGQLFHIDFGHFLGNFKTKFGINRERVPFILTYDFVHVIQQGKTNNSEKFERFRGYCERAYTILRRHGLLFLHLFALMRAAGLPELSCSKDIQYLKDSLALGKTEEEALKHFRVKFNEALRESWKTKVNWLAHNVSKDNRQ
Description: as §1, §2, §3

PI3Kγ = target: T3, PI3Kγ (Homo sapiens, UniProt P48736); details: read-out: inhibitory activity (IC50) against PI3Kγ
T3 construct: purchased Ambit Biosciences; host or cells: E. coli BL21-derived host (T7 phage) or HEK-293
Description: as §1, §2, §3

PI3Kα = target: T4, PI3Kα (Homo sapiens, UniProt P42336); details: read-out: inhibitory activity (IC50) against PI3Kα
T4 construct: purchased Ambit Biosciences; host or cells: E. coli BL21-derived host (T7 phage) or HEK-293
Description: as §1, §2, §3

mTOR = target: T5, mTOR (Homo sapiens, UniProt P42345); details: read-out: inhibitory activity (IC50) against mTOR
T5 construct: purchased Ambit Biosciences; host or cells: E. coli BL21-derived host (T7 phage) or HEK-293
Description: as §1, §2, §3

T4 sequence (P42336 whole entry): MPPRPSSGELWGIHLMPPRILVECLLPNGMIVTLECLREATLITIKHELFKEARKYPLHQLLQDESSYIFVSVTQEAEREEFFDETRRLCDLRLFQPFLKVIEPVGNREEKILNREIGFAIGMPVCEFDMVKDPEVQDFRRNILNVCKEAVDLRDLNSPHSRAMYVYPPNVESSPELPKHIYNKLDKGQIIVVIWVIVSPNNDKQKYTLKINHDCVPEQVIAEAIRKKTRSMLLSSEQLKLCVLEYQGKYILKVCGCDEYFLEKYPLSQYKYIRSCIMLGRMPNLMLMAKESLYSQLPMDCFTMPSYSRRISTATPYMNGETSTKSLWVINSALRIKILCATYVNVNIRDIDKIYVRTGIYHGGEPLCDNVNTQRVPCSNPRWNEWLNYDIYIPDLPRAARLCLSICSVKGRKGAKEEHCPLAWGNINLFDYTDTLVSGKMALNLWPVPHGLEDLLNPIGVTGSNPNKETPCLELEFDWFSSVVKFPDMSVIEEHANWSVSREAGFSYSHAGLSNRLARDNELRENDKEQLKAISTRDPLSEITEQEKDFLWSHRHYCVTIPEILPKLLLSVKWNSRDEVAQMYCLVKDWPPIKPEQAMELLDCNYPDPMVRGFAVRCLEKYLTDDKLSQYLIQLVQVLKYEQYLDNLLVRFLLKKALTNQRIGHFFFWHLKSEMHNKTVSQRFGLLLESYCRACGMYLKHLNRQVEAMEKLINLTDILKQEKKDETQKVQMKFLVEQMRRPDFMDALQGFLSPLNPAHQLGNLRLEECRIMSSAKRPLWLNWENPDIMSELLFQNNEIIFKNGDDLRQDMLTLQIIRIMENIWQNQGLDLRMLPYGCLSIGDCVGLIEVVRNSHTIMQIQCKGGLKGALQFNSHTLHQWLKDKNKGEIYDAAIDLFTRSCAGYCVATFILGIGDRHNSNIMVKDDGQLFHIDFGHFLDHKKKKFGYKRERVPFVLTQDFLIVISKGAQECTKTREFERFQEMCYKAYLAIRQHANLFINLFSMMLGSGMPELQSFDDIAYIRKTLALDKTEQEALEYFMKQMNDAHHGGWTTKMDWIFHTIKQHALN
T3 sequence (P48736 whole entry): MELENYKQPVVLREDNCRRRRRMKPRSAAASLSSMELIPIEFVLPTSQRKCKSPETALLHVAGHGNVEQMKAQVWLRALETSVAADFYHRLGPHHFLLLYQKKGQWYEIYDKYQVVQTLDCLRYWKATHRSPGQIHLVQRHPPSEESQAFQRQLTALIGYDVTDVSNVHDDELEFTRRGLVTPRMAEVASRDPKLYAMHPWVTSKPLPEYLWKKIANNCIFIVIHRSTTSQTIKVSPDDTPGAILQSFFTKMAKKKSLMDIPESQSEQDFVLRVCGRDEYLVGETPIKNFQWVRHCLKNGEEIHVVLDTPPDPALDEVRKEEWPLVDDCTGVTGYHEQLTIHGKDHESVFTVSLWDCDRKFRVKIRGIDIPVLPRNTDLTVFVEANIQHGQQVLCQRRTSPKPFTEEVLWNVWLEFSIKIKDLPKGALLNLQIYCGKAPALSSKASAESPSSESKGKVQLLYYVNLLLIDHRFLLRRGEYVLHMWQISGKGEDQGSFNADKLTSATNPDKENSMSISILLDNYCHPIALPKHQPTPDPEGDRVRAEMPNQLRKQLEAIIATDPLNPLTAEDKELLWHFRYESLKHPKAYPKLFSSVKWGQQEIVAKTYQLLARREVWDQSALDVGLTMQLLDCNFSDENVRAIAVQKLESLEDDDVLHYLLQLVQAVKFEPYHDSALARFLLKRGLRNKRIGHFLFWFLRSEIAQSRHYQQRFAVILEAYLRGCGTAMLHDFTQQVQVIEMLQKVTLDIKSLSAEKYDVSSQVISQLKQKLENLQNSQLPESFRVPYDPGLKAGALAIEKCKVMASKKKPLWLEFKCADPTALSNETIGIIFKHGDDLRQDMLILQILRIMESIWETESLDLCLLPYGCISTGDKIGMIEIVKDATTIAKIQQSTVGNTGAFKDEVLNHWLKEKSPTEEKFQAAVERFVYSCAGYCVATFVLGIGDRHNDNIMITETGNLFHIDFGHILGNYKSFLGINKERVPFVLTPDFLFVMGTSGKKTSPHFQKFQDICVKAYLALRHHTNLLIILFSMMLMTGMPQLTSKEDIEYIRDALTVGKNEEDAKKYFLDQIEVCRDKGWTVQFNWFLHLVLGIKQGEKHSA
T1 sequence (P42338 whole entry): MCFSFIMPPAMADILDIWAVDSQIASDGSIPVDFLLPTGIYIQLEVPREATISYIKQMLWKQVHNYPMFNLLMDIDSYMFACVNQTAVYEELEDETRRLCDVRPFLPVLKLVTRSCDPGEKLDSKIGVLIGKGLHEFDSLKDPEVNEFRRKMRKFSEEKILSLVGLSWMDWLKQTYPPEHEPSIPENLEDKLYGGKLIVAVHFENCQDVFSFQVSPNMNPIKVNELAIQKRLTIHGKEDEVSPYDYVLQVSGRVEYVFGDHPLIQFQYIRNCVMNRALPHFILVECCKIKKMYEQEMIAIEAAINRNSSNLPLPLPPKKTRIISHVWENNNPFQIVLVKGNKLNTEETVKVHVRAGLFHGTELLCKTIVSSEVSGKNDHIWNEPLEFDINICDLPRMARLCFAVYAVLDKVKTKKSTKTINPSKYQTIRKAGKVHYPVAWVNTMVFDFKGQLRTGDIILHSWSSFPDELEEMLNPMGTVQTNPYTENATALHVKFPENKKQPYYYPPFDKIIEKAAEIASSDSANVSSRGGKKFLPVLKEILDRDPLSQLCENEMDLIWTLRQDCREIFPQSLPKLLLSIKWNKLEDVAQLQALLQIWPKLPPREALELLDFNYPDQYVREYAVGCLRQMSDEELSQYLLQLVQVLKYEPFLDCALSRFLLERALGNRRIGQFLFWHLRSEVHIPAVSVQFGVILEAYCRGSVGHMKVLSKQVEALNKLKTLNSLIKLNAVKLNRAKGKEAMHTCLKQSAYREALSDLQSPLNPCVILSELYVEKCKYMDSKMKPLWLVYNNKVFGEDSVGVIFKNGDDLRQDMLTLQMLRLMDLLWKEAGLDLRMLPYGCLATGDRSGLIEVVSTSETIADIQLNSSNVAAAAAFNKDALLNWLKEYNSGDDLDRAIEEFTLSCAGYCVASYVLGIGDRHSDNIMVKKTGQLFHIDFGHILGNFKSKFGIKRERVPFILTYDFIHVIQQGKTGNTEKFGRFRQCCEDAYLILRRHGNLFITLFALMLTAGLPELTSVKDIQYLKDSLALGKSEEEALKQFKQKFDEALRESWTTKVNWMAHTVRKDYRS

| IC50 (PI3Kβ) | IC50 (PI3Kδ) | IC50 (PI3Kγ) | IC50 (PI3Kα) | IC50 (mTOR) | inhibition against PI3Kδ (PI3Kδ; at up to 100 nM) | IC50 (PI3Kδ; read-out: IC50, inhibition against PI3Kδ) | Compound |
| --- | --- | --- | --- | --- | --- | --- | --- |
| > 100 nM | < 100 nM | > 100 nM | > 100 nM | > 100 nM | – | – | OCCn1cnc2c(-n3c(C(F)F)nc4ccccc43)nc(N3CCOCC3)nc21 [Example 2, 2-{6-[2-(difluoromethyl)benzimidazol-1-yl]-2-morpholin-4-ylpurin-9-yl}ethan-1-ol] |
| – | – | – | – | – | did not show significant inhibition | – | Cc1nc2ccccc2n1-c1nc(N2CCOCC2)nc2c1ncn2CCO [Example 2d, reference compound] |
| – | – | < 100 nM | < 100 nM | – | – | < 100 nM | COc1cccc2c1nc(C(F)F)n2-c1nc(N2CCOCC2)nc2c1ncn2C1CCOCC1 [Example 21, 1-(9-(2H-3,4,5,6-tetrahydropyran-4-yl)-2-morpholin-4-ylpurin-6-yl)-2-(difluoromethyl)-4-methoxybenzimidazole] |
